The values below come from ChEMBL document CHEMBL1136781, “Comparison of in vitro P-glycoprotein screening assays: recommendations for their use in drug discovery” (J Med Chem, 2003).

In series [1] the target is T1, ATP-dependent translocase ABCB1 (Homo sapiens, UniProt P08183). The experiment in a line: Inhibition of P-glycoprotein, human L-MDR1 expressed in LLC-PK1 epithelial cells using calcein-AM polarisation assay. The series is classed as functional, cell-based.
The target of series [2] is T2, ATP-dependent translocase ABCB1 (Mus musculus, UniProt P21447). As to the kind of experiment: Inhibition of P-glycoprotein, mouse L-mdr1a expressed in LLC-PK1 epithelial cells using calcein-AM polarisation assay. The series is classed as functional, cell-based.
T2 sequence (P21447 whole entry): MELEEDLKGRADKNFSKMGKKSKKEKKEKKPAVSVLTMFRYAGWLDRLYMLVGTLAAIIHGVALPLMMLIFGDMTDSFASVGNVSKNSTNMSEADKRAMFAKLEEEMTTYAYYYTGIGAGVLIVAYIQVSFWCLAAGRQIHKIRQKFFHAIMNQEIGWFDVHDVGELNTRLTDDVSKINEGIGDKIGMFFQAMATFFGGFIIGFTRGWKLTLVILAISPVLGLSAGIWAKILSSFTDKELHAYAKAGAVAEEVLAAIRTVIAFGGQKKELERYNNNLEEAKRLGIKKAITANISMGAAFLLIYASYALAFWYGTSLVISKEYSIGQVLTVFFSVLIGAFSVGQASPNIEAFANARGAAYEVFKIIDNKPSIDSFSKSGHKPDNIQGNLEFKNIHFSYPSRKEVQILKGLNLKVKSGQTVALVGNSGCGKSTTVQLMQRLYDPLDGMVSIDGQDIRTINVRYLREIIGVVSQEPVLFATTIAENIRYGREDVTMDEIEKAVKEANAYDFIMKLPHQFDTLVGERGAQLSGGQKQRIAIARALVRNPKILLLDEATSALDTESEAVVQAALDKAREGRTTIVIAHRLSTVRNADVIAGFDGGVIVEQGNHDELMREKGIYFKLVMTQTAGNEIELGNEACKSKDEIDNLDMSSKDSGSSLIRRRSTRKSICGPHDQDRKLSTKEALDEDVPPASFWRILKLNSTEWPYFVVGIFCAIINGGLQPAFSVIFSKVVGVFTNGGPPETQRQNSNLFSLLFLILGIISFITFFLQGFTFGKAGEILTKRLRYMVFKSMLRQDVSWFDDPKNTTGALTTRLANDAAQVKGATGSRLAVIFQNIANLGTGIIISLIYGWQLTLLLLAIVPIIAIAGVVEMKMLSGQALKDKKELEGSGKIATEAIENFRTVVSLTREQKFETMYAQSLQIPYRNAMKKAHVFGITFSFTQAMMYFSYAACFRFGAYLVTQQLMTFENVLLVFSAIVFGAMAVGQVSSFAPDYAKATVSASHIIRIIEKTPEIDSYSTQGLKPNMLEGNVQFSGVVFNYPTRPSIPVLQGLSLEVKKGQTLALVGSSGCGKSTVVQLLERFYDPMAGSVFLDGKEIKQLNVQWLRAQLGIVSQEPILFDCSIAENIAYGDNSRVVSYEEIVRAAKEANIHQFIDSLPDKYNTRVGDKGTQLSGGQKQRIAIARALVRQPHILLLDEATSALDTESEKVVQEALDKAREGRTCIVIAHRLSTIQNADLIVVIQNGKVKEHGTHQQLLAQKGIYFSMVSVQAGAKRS
For series [3], the target named is T1, ATP-dependent translocase ABCB1. As to the kind of experiment: Inhibition of P-gp was determined using rhodamine-assay in human CaCo-2 cells. The series is classed as functional, cell-based. Also on record: concentration or dose not given beside the values.
Series [4] has as its target T3, ATP-dependent translocase ABCB1 (Mus musculus, UniProt P06795). As to the kind of experiment: Inhibition of P-glycoprotein, mouse L-mdr1b expressed in LLC-PK1 epithelial cells using calcein-AM polarisation assay. Type of series: functional, cell-based.
Series [5] concerns the target T1, ATP-dependent translocase ABCB1. The experiment in a line: Inhibition of P-glycoprotein using ATPase in MDR1 membranes. The series is classed as functional, cell membranes.
Series [6] is described as follows: Partition coefficient (logP). The series is classed as physicochemical. The following applies: octanol/water.
The target in series [7] is T3, ATP-dependent translocase ABCB1. As to the kind of experiment: TP_TRANSPORTER: inhibition of Calcein-AM efflux in Mdr1b-expressing LLC-PK1 cells. The series is classed as functional, cell-based.
Series [8] deals with T1, ATP-dependent translocase ABCB1. The experiment in a line: TP_TRANSPORTER: inhibition of Rhodamine 123 efflux in Caco-2 cells. The series is classed as functional, cell-based. Further details: concentration or dose not given beside the values. (Caco-2 monolayers are a common model of the intestinal barrier.)
The target of series [9] is T2, ATP-dependent translocase ABCB1. The experiment in a line: TP_TRANSPORTER: inhibition of Calcein-AM efflux in Mdr1a-expressing LLC-PK1 cells. The series is classed as functional, cell-based.
Series [10] addresses T1, ATP-dependent translocase ABCB1. The experiment in a line: TP_TRANSPORTER: inhibition of Calcein-AM efflux in MDR1-expressing LLC-PK1 cells. The series is classed as functional, cell-based.

T1 sequence (P08183 whole entry): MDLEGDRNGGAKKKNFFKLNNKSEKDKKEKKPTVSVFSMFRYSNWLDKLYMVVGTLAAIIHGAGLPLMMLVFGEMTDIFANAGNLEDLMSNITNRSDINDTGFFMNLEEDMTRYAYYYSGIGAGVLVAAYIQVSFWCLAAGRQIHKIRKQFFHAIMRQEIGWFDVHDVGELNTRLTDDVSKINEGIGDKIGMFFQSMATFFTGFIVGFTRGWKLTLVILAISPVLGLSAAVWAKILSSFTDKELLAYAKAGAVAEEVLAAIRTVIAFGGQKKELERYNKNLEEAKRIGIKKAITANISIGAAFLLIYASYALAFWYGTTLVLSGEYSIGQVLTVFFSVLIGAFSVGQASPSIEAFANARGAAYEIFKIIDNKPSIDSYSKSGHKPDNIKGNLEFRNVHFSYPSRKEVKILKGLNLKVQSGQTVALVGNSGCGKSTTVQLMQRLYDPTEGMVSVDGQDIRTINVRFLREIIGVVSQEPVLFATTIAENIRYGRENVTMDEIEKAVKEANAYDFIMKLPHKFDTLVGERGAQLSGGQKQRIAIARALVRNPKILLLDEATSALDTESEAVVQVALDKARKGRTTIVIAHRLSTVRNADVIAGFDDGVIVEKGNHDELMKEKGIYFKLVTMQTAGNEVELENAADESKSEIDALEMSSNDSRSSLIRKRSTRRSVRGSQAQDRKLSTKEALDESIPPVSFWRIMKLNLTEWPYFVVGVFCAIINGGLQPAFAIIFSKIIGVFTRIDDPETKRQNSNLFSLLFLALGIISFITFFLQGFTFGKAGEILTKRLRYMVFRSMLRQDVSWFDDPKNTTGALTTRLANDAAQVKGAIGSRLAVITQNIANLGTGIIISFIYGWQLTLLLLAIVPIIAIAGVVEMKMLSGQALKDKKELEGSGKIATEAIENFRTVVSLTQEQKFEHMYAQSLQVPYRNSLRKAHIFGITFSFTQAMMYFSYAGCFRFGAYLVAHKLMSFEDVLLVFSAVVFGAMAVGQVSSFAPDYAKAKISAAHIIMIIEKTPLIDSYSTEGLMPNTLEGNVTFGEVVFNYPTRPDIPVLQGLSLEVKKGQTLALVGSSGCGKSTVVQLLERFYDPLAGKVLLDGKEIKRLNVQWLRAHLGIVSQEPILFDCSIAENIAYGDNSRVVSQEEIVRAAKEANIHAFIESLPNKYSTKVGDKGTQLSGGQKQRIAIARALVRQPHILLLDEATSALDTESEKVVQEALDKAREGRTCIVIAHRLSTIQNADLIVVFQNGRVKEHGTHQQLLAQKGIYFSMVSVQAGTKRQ
T3 sequence (P06795 whole entry): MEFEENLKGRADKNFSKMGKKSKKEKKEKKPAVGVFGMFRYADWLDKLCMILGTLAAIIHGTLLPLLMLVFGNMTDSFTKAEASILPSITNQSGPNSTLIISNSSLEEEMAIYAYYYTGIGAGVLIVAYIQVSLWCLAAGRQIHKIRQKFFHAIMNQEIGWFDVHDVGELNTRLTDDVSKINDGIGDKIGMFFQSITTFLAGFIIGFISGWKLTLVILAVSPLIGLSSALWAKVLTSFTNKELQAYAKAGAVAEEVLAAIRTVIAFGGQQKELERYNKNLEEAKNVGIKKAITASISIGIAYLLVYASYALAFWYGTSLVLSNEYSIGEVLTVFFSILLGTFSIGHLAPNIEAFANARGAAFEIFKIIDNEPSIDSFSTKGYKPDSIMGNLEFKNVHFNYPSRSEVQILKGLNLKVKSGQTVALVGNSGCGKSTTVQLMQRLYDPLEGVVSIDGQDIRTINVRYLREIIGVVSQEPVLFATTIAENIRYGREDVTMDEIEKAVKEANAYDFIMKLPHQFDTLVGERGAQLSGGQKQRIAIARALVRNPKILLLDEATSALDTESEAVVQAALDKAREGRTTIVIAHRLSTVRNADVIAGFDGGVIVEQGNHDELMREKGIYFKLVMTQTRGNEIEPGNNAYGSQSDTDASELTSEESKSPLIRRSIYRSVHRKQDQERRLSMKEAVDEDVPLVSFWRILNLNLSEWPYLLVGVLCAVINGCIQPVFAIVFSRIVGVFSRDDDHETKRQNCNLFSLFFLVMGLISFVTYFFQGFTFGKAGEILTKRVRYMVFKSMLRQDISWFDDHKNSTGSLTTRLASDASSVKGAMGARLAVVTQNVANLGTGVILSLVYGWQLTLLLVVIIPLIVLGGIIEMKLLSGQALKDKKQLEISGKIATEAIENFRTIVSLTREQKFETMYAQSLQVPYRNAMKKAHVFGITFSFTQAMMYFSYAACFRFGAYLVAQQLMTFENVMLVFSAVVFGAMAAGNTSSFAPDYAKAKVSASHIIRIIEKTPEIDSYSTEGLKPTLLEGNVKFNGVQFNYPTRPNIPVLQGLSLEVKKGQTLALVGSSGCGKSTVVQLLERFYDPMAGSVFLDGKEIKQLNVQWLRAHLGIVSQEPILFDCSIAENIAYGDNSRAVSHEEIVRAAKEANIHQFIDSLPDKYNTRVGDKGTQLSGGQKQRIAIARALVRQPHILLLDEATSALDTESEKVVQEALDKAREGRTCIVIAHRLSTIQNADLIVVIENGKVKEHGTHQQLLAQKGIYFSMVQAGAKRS

The IC50 is the concentration needed to halve the response being measured. A word on the Inhibition: it is the change of the read-out against control, counted positive when it falls. As a reminder, the logP is a log measure of how a compound divides between an organic and an aqueous phase. As for `CN/C(=C\[N+](=O)[O-])NCCSCc1ccc(CN(C)C)o1` [RANITIDINE], the half-inhibitory concentration (IC50) in series [1], in series [2] and in series [4] was over 50 µM each time. The Inhibition in series [3] worked out at 0%. Besides, in series [5], the Activity is -2.4 nmol/min/mg. Further, the logP in series [6] (read-out: logP) was found to be 0.6.

On to `Clc1ccccc1C(c1ccccc1)(c1ccccc1)n1ccnc1` [CLOTRIMAZOLE], for which the half-maximal inhibitory concentration (IC50) is 3.5 µM in series [7], 4.8 µM in series [2], 3.5 µM in series [4] and 4.8 µM in series [9]. Further, the figures for the Activity in [8] and in series [5] were 29% and 7.5 nmol/min/mg, respectively. In [3], the Inhibition came to 29%. Also, in series [6] (read-out: logP), the lipophilicity (logP) was found to be 5.3.

On to `COCC(=O)O[C@]1(CCN(C)CCCc2nc3ccccc3[nH]2)CCc2cc(F)ccc2[C@@H]1C(C)C` [MIBEFRADIL], for which the IC50 in [7] is 10 µM; in series [2] it was 7.4 µM; in series [4], 10 µM; in [9] it was 7.4 µM. Moreover, the Activity in series [8] is 60%; in series [5], 8.9 nmol/min/mg. Further, the Inhibition in series [3] came to 60%. The logP in [6] was 6.2.

With `C[C@@H]1C[C@H]2[C@@H]3CCC4=CC(=O)C=C[C@]4(C)[C@@]3(F)[C@@H](O)C[C@]2(C)[C@@]1(O)C(=O)CO` [DEXAMETHASONE], the IC50 in series [1], in series [7], in series [2], in [4], in series [10] and in series [9] was over 50 µM throughout. For the same molecule, the Activity was 0% in series [8] and 4 nmol/min/mg in series [5]. Further, the Inhibition in series [3] is on record as 0%. Besides, the logP in series [6] (read-out: logP) was 1.7.

As for `CNC(=C[N+](=O)[O-])NCCSCc1ccc(CN(C)C)o1` [RANITIDINE], the IC50 in [7], in [10] and in series [9] was over 50 µM throughout. This molecule also registered an Activity in series [8] of 0%.

On to `COc1cc2c(c(OC)c1OC)-c1ccc(OC)c(=O)cc1[C@@H](NC(C)=O)CC2` [COLCHICINE], for which the 50% inhibitory concentration (IC50) in series [1], in [7], in series [2], in [4], in series [10] and in series [9] was over 50 µM each time. Also, the Activity amounted to 8% in series [8] and 0.1 nmol/min/mg in series [5]. For the same molecule, the Inhibition in [3] turned out to be 8%.

Take `Cc1c(O)cccc1C(=O)N[C@@H](CSc1ccccc1)[C@H](O)CN1C[C@H]2CCCC[C@H]2C[C@H]1C(=O)NC(C)(C)C`: the IC50 in [2] and in series [9] was 2.3 µM throughout. Further, the Activity in [8] is 30%; in series [5] it was 6.2 nmol/min/mg. For the same molecule, in series [3], the Inhibition worked out at 30%. This molecule also yielded a logP in [6] of 5.8.

Take `CC[C@]1(O)C[C@@H]2CN(CCc3c([nH]c4ccccc34)[C@@](C(=O)OC)(c3cc4c(cc3OC)N(C)[C@H]3[C@@](O)(C(=O)OC)[C@H](OC(C)=O)[C@]5(CC)C=CCN6CC[C@]43[C@@H]65)C2)C1` [VINBLASTINE]: the IC50 in series [7] was 8 µM; in series [2] it was over 50 µM; in [4] it was 8 µM; in series [9], over 50 µM. For the same molecule, the Activity in [8] stood at 75%; in series [5], 33 nmol/min/mg. This molecule came in with an Inhibition in series [3] of 75%. In addition, the logP in [6] stood at 5.2.

For `COc1ccc(CCN2CCC(Nc3nc4ccccc4n3Cc3ccc(F)cc3)CC2)cc1` [ASTEMIZOLE], the IC50 in series [7] was 1.7 µM; in series [2], 1.3 µM; in series [4], 1.7 µM; in series [9] it was 1.3 µM. The values for the Activity in [8] and in [5] were 39% and 18 nmol/min/mg, respectively. In series [3], this molecule displayed an Inhibition of 39%. The logP in [6] (read-out: logP) worked out at 5.7.
